Experimental data taken from patent US7932277B2, “Peptide inhibitors of hepatitis C virus replication” (InterMune, Inc., priority 2007, dated 2011).
Where two headings read alike, the source gives them in different places.

Key:
[1] = target: T1, NS3/NS4A-2 (full-length HCV NS3 protease complexed with NS4A-2) (Hepatitis C virus genotype 1a, UniProt P27958); experiment: NS3 inhibition assay (NS3-NS4 protease assay); type: biochemical
T1 construct: Recombinant E. coli or Baculovirus full-length NS3; host or cells: E. coli or baculovirus (insect cells)
Method: Recombinant E. coli or Baculovirus full-length NS3 was diluted to 3.33 μM with assay buffer and transferred material to an eppendorf tube and place in water bath in 4° C. refrigerator. The appropriate amount of NS4A-2 to 8.3 mM in assay buffer was added to equal the volume of NS3 in step 2.1.1 (conversion factor −3.8 mg/272 μL assay buffer). The material was transferred to an eppendorf tube and place in water bath in 4° C. refrigerator.
After equilibration to 4° C., equal volumes of NS3 and NS4A-2 solutions were combined in an eppendorf tube, mix gently with a manual pipettor, and incubate mixture for 15 minutes in the 4° C. water bath. Final concentrations in the mixture are 1.67 μM NS3, 4.15 mM NS4A-2 (2485-fold molar excess NS4A-2).
After 15 minutes at 4° C., the NS3/NS4A-2 eppendorf tube was removed and place it in a room temperature water bath for 10 minutes. NS3/NS4A-2 was aliquoted at appropriate volumes and store at −80° C. (E. coli NS3 run at 2 nM in assay, aliquot at 25 μL. BV NS3 run at 3 nM in assay, aliquot at 30 μL).
Sample compounds were dissolved to 10 mM in DMSO then diluted to 2.5 mM (1:4) in DMSO. Typically, compounds were added to an assay plate at 2.5 mM concentration, yielding upon dilution a starting concentration of 50 microM in the assay inhibition curve. Compounds were serial diluted in assay buffer to provide test solutions at lower concentrations.
The E. coli. NS3/NS4A-2 was diluted to 4 nM NS3 (1:417.5 of 1.67 μM stock−18 μL1.67 μM stock+7497 μL assay buffer). The BV NS3/NS4A-2 was diluted to 6 nM NS3 (1:278.3 of 1.67 μM stock−24 μL1.67 μM stock+6655 μL assay buffer). Using the manual multichannel pipettor, careful not to introduce bubbles into the plate, add 50 μL assay buffer to wells A01-H01 of a black Costar 96-well polypropylene storage plate.
Using the manual multichannel pipettor, careful not to introduce bubbles into the plate, add 50 μL of diluted NS3/NS4A-2 from step 2.2.6 to wells A02-H12 of plate in step 2.2.7. Using the manual multichannel pipettor, careful not to introduce bubbles into the plate, transfer 25 μL of the wells in drug dilution plate in step 2.2.5 to corresponding wells in assay plate in step 2.2.8. Change tips on multichannel pipettor for each row of compounds transferred. Using the manual multichannel pipettor, careful not to introduce bubbles into the plate, mix the wells from the assay plate in step 2.2.9 by aspirating and dispensing 35 μL of the 75 μL in each well five times. Change tips on multichannel pipettor for each row of wells mixed. Cover plate with a polystyrene plate lid and pre-incubate the plate from step 2.2.10 containing NS3 protease and sample compounds 10 minutes at room temperature. While plate from step 2.2.11 is pre-incubating, dilute RETS1 substrate in a 15 mL polypropylene centrifuge tube. Dilute RETS1 substrate to 8 μM (1:80.75 of 646 μM stock−65 μL 646 μM stock+5184 μL assay buffer).
After the plate in step is done pre-incubating, and using the manual multichannel, add 25 μL of substrate to all wells on the plate. Quickly mix the plate as in step 2.2.10, mixing 65 μL of the 100 μL in the wells.
Read the plate in kinetic mode on the Molecular Devices SpectraMax Gemini XS plate reader. Reader settings: Read time: 30 minutes, Interval: 36 seconds, Reads: 51, Excitation λ: 335 nm, Emission λ: 495 nm, cutoff: 475 nm, Automix: off, Calibrate: once, PMT: high, Reads/well: 6, Vmax pts: 21 or 28/51 depending on length of linearity of reaction
IC50s are determined using a four parameter curve fit equation, and converted to Ki's using the following Km's: • Full-length E. coli NS3−2.03 μM • Full-length BV NS3−1.74 μM • where Ki=IC50/(1+[S]/Km)) • Quantitation by ELISA of the Selectable Marker Protein, Neomycin Phosphotransferase II (NPTII) in the HCV Sub-Genomic Replicon, GS4.3

[2] = tested on: HCV sub-genomic replicon (1377/NS3-3') in HuH-7 hepatoma cells (GS4.3); experiment: Quantitation by ELISA of NPTII in the HCV sub-genomic replicon, GS4.3; type: cell-based, hepatitis C virus (HCV); details: Hepatitis C virus, read-out: Replicon EC50
Method: The HCV sub-genomic replicon (1377/NS3-3′, accession No. AJ242652), stably maintained in HuH-7 hepatoma cells, was created by Lohmann et al. Science 285: 110-113 (1999). The replicon-containing cell culture, designated GS4.3, was obtained from Dr. Christoph Seeger of the Institute for Cancer Research, Fox Chase Cancer Center, Philadelphia, Pa.
GS4.3 cells were maintained at 37° C., 5% CO2, in DMEM (Gibco 11965-092) supplemented with L-glutamine 200 mM (100×) (Gibco25030-081), non-essential amino acids (NEAA) (Biowhittaker 13-114E), heat-inactivated (HI) Fetal Bovine Serum (FBS) (Hyclone SH3007.03) and 750 μg/mL geneticin (G418)(Gibco 10131-035). Cells were sub-divided 1:3 or 4 every 2-3 days.
24 h prior to the assay, GS4.3 cells were collected, counted, and plated in 96-well plates (Costar 3585) at 7500 cells/well in 100 μL standard maintenance medium (above) and incubated in the conditions above. To initiate the assay, culture medium was removed, cells were washed once with PBS (Gibco 10010-023) and 90 μl Assay Medium (DMEM, L-glutamine, NEAA, 10% HI FBS, no G418) was added. Inhibitors were made as a 10× stock in Assay Medium, (3-fold dilutions from 10 μM to 56 pM final concentration, final DMSO concentration 1%), 10 μL were added to duplicate wells, plates were rocked to mix, and incubated as above for 72 h.
An NPTII Elisa kit was obtained from AGDIA, Inc. (Compound direct ELISA test system for Neomycin Phosphotransferase II, PSP 73000/4800). Manufacturer's instructions were followed, with some modifications. 10×PEB-1 lysis buffer was made up to include 500 μM PMSF (Sigma P7626, 50 mM stock in isopropanol). After 72 h incubation, cells were washed once with PBS and 150 μL PEB-1 with PMSF was added per well. Plates were agitated vigorously for 15 minutes, room temperature, then frozen at −70° C. Plates were thawed, lysates were mixed thoroughly, and 100 μl were applied to an NPTII Elisa plate. A standard curve was made. Lysate from DMSO-treated control cells was pooled, serially diluted with PEB-1 with PMSF, and applied to duplicate wells of the ELISA plate, in a range of initial lysate amount of 150 μL-2.5 μL. In addition, 100 μL buffer alone was applied in duplicate as a blank. Plates were sealed and gently agitated at room temperature for 2 h. Following capture incubation, the plates were washed 5×300 μL with PBS-T (0.5% Tween-20, PBS-T was supplied in the ELISA kit). For detection, a 1× dilution of enzyme conjugate diluent MRS-2 (5×) was made in PBS-T, into which 1:100 dilutions of enzyme conjugates A and B were added, as per instructions. Plates were resealed, and incubated with agitation, covered, room temperature, for 2 h. The washing was then repeated and 100 μL of room temperature TMB substrate was added. After approximately 30 minutes incubation (room temperature, agitation, covered), the reaction was stopped with 50 μL 3M sulfuric acid. Plates were read at 450 nm on a Molecular Devices Versamax plate reader.
Inhibitor effect was expressed as a percentage of DMSO-treated control signal, and inhibition curves were calculated using a 4-parameter equation: y=A+((B−A)/(1+((C/x)^D))), where C is half-maximal activity or EC50.

[3] = recombinant full-length NS3/NS4A-2, RETS1 substrate, kinetic fluorescence read, read-out: NS3-NS4 IC50
[4] = Huh-7, GS4.3 cells, 72 h incubation, NPTII ELISA

T1 sequence (P27958 1027-1657, one chain of several): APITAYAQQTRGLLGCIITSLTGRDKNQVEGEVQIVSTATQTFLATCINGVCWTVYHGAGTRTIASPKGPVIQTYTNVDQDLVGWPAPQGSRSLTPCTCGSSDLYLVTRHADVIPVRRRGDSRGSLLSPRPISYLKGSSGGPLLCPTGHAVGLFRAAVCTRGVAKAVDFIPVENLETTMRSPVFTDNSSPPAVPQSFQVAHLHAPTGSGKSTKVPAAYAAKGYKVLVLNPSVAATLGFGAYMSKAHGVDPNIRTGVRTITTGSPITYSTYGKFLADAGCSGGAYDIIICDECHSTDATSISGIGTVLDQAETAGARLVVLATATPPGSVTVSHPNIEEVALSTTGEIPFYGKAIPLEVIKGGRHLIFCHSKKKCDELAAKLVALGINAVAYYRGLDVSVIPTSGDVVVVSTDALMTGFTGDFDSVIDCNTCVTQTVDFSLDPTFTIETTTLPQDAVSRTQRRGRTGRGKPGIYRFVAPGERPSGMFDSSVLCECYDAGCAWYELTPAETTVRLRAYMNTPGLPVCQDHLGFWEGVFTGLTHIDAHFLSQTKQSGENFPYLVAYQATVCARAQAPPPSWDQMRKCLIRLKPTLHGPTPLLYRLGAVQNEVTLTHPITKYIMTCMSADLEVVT

## C=C[C@@H]1C[C@]1(NC(=O)[C@@H]1C[C@@H](OC(=O)N2Cc3cccc(Cl)c3C2)CN1C(=O)[C@@H](Nc1nc(C(F)(F)F)cs1)C1CCCCC1)C(=O)NS(=O)(=O)C1CC1 [Compound 63, [(3R,5S)-5-(((1R,2S)-1-(Cyclopropylsulfonylcarbamoyl)-2-vinylcyclopropyl)carbamoyl)-1-((S)-2-cyclohexyl-2-(4-(trifluoromethyl)thiazol-2-ylamino)acetyl)pyrrolidin-3-yl]4-chloroisoindoline-2-carboxylate]
[1]; [3]
  IC50: < 0.1 µM
[2]; [4]
  EC50: < 0.1 µM

## C=C[C@@H]1C[C@]1(NC(=O)[C@@H]1C[C@@H](OC(=O)N2Cc3cccc(F)c3C2)CN1C(=O)[C@@H](Nc1cccc(C(F)(F)F)c1)C(C)C)C(=O)NS(=O)(=O)C1CC1 [Compound 42, [(3R,5S)-5-((1R,2S)-1-(cyclopropylsulfonylcarbamoyl)-2-vinylcyclopropylcarbamoyl)-1-((S)-3-methyl-2-(3-(trifluoromethyl)phenylamino)butanoyl)pyrrolidin-3-yl]4-fluoroisoindoline-2-carboxylate]
[1]; [3]
  IC50: < 0.1 µM
[2]; [4]
  EC50: < 0.1 µM

## CC[C@@H]1C[C@]1(NC(=O)[C@@H]1C[C@@H](OC(=O)N2Cc3cccc(F)c3C2)CN1C(=O)[C@@H](Nc1cncc(C(F)(F)F)c1)C(C)(C)C)C(=O)NS(=O)(=O)C1CC1 [Compound 57, [(3R,5S)-5-((1R,2R)-1-(cyclopropylsulfonylcarbamoyl)-2-ethylcyclopropylcarbamoyl)-1-((S)-3,3-dimethyl-2-(5-(trifluoromethyl)pyridin-3-ylamino)butanoyl)pyrrolidin-3-yl]4-fluoroisoindoline-2-carboxylate]
[1]; [3]
  IC50: < 0.1 µM
[2]; [4]
  EC50: < 0.1 µM

## C=C[C@@H]1C[C@]1(NC(=O)[C@@H]1Cc2cc(Oc3cccc(Cl)c3)ccc2CN1C(=O)[C@@H](Nc1ccc(F)cc1)C(C)(C)C)C(=O)NS(=O)(=O)C1CC1 [Compound 11, (S)-6-(3-chlorophenoxy)-N-((1R,2S)-1-(cyclopropylsulfonylcarbamoyl)-2-vinylcyclopropyl)-2-((S)-2-(4-fluorophenylamino)-3,3-dimethylbutanoyl)-1,2,3,4-tetrahydroisoquinoline-3-carboxamide]
[1]; [3]
  IC50: < 0.1 µM
[2]; [4]
  EC50: 10 to 50 µM

## CC(C)(C)[C@H](Nc1cccc(C(F)(F)F)c1)C(=O)N1C[C@H]2[C@@H]([C@H]1C(=O)NC(CC1CCC1)C(=O)C(N)=O)C2(C)C (some centres unmarked) [Compound 68]
[1]
  IC50: 0.1 to 1 µM
[2]; Huh-7, 72 h
  EC50: 10 to 50 µM

## CC[C@@H]1C[C@]1(NC(=O)[C@@H]1C[C@@H](OC(=O)N2Cc3cccc(Cl)c3C2)CN1C(=O)[C@@H](Nc1cccc(C(F)(F)F)c1)C(C)(C)C)C(=O)NOC(C)(C)C [Compound 71]
[1]; [3]
  IC50: 0.1 to 1 µM
[2]; [4]
  EC50: 0.1 to 1 µM

## C=C[C@@H]1C[C@]1(NC(=O)[C@@H]1C[C@@H](OC(=O)N2Cc3cccc(F)c3C2)CN1C(=O)[C@@H](Nc1cccc(C(F)(F)F)c1)C(C)(C)C)C(=O)NS(=O)(=O)C1CC1 [Compound 43, [(3R,5S)-5-((1R,2S)-1-(cyclopropylsulfonylcarbamoyl)-2-vinylcyclopropylcarbamoyl)-1-((S)-3,3-dimethyl-2-(3-(trifluoromethyl)phenylamino)butanoyl)pyrrolidin-3-yl]4-fluoroisoindoline-2-carboxylate]
[1]; [3]
  IC50: < 0.1 µM
[2]; [4]
  EC50: < 0.1 µM

## CC[C@@H]1C[C@]1(NC(=O)[C@@H]1C[C@@H](OC(=O)N2Cc3cccc(Cl)c3C2)CN1C(=O)[C@@H](Nc1cccc(Oc2ccccc2)c1)C(C)(C)C)C(=O)NS(=O)(=O)C1CC1 [Compound 76]
[1]; [3]
  IC50: < 0.1 µM
[2]; [4]
  EC50: < 0.1 µM

## C=C[C@@H]1C[C@]1(NC(=O)[C@@H]1C[C@@H](OC(=O)N2Cc3cccc(Cl)c3C2)CN1C(=O)[C@@H](Nc1cccc(C(C)(C)C)c1)C(C)C)C(=O)NS(=O)(=O)C1CC1 [Compound 41, [(3R,5S)-1-((S)-2-(3-tert-butylphenylamino)-3-methylbutanoyl)-5-((1R,2S)-1-(cyclopropylsulfonylcarbamoyl)-2-vinylcyclopropylcarbamoyl)pyrrolidin-3-yl]4-chloroisoindoline-2-carboxylate]
[1]; [3]
  IC50: < 0.1 µM
[2]; [4]
  EC50: < 0.1 µM

## C=CCCCCC[C@H](Nc1ccc(F)cc1)C(=O)N1C[C@H](OC(=O)N2Cc3cccc(F)c3C2)C[C@H]1C(=O)N[C@]1(C(=O)NS(=O)(=O)C2CC2)C[C@H]1C=C [Compound 35, [(3R,5S)-5-((1R,2S)-1-(cyclopropylsulfonylcarbamoyl)-2-vinylcyclopropylcarbamoyl)-1-((S)-2-(4-fluorophenylamino)non-8-enoyl)pyrrolidin-3-yl]4-floroisoindoline-2-carboxylate]
[1]; [3]
  IC50: < 0.1 µM
[2]; [4]
  EC50: 1 to 10 µM
